# Laboratory results published in paper PMC12655637, “Design, Synthesis, and Mechanistic Study of Novel Ciprofloxacin/Thiazole Chalcone Hybrids as Potential Anticancer Agents” (Pharmaceuticals, 2025).
# pIC50: −log10 of the molar value.
# Tests used:
# Assay in all cases: NCI-60 screening, one-dose (10 µM) and five-dose, SRB
# SNB-19 = assay type: cell-based
# K-562 = assay type: cell-based, human
# HT29 = assay type: cell-based, human
# KM12 = assay type: cell-based, human; settings: five-dose, KM12
# NCI-H322M = assay type: cell-based, human
# RPMI-8226 = assay type: cell-based, human
# HS 578T = assay type: cell-based, human
# DU-145 = assay type: cell-based, human
# SW-620 = assay type: cell-based, human
# MDA-MB231/ATCC = assay type: cell-based
# HOP-62 = assay type: cell-based, human
# LOX IMVI = assay type: cell-based, human; settings: five-dose
# PC-3 = assay type: cell-based, human
# UACC-257 = assay type: cell-based, human
# SNB-75 = assay type: cell-based, human; settings: Homo sapiens
# [1] = Homo sapiens, five-dose, SNB-19
# [2] = Homo sapiens, K562, five-dose, K-562
# [3] = Homo sapiens, HT-29, five-dose, HT29
# [4] = Homo sapiens, five-dose, DU-145
# [5] = Homo sapiens, five-dose, SW-620
# [6] = Homo sapiens, five-dose, HOP-62
# [7] = Homo sapiens, five-dose, UACC-257
structure (smiles),measurement,setting,value
"Cc1nc(SCC(=O)N2CCN(c3cc4c(cc3F)c(=O)c(C(=O)O)cn4C3CC3)CC2)sc1C(=O)/C=C/c1cccc(F)c1 [Compound 4d, (E)-1-Cyclopropyl-6-fluoro-7-(4-(2-((5-(3-(3-fluorophenyl)acryloyl)-4-methylthiazol-2-yl)thio)acetyl)piperazin-1-yl)-4-oxo-1,4-dihydroquinoline-3-carboxylic Acid]",activity at 10 µM,"SNB-19; Homo sapiens, 10 μM, SNB-19, CNS Cancer, read-out: Growth percentage",12.2%
same,GI50,SNB-19; [1],6.9 µM
same,pIC50,SNB-19; [1],4.55
same,CC50,"SNB-19; Homo sapiens, five-dose, SNB-19, read-out: LC50 (the source's name)",> 100 µM
same,TGI,"SNB-19; five-dose, SNB-19",100.0 µM
same,activity at 10 µM,"K-562; Homo sapiens, K562, 10 μM, K-562, Leukemia, read-out: Growth percentage",56.1%
same,GI50,K-562; [2],1.58 µM
same,pIC50,K-562; [2],5.62
same,CC50,"K-562; Homo sapiens, K562, five-dose, K-562, read-out: LC50 (the source's name)",9.12 µM
same,TGI,"K-562; five-dose, K-562",8.7 µM
same,activity at 10 µM,"HT29; Homo sapiens, HT-29, 10 μM, HT29, Colon Cancer, read-out: Growth percentage",3.7%
same,GI50,HT29; [3],> 100 µM
same,pIC50,HT29; [3],4.00
same,CC50,"HT29; Homo sapiens, HT-29, five-dose, HT29, read-out: LC50 (the source's name)",> 100 µM
same,TGI,"HT29; five-dose, HT29",1.91 µM
same,GI50,KM12; Homo sapiens,0.52 µM
same,pIC50,KM12; Homo sapiens,6.16
same,LC50,KM12; Homo sapiens,6.92 µM
same,TGI,KM12,97.7 µM
same,Growth percentage,"NCI-H322M; 10 μM, Non-Small-Cell Lung Cancer",95.7%
same,GI50,"NCI-H322M; Homo sapiens, five-dose",> 100 µM
same,pIC50,"NCI-H322M; Homo sapiens, five-dose",< 4.00
same,LC50,"NCI-H322M; Homo sapiens, five-dose",> 100 µM
same,TGI,NCI-H322M; five-dose,100.0 µM
same,pIC50,"RPMI-8226; Homo sapiens, RPMI-8226, RPMI-8226",6.52
same,pIC50,"RPMI-8226; Homo sapiens, RPMI-8226, five-dose, RPMI-8226",6.47
same,GI50,"RPMI-8226; Homo sapiens, five-dose, RPMI-8226",0.19 µM
same,CC50,"RPMI-8226; Homo sapiens, five-dose, RPMI-8226, read-out: LC50 (the source's name)",0.6 µM
same,TGI,"RPMI-8226; five-dose, RPMI-8226",2.63 µM
same,activity at 10 µM,"HS 578T; Homo sapiens, 10 μM, Breast Cancer, read-out: Growth percentage",36.2%
same,GI50,"HS 578T; Homo sapiens, five-dose",> 100 µM
same,pIC50,"HS 578T; Homo sapiens, five-dose",< 4.00
same,CC50,"HS 578T; Homo sapiens, five-dose, read-out: LC50 (the source's name)",> 100 µM
same,TGI,HS 578T; five-dose,28.2 µM
same,activity at 10 µM,"DU-145; Homo sapiens, 10 μM, DU-145, Prostate Cancer, read-out: Growth percentage",73.7%
same,GI50,DU-145; [4],> 100 µM
same,pIC50,DU-145; [4],< 4.00
same,CC50,"DU-145; Homo sapiens, five-dose, DU-145, read-out: LC50 (the source's name)",> 100 µM
same,TGI,"DU-145; five-dose, DU-145",100.0 µM
same,activity at 10 µM,"SW-620; Homo sapiens, 10 μM, SW-620, Colon Cancer, read-out: Growth percentage",3.2%
same,GI50,SW-620; [5],3.7 µM
same,pIC50,SW-620; [5],5.33
same,CC50,"SW-620; Homo sapiens, five-dose, SW-620, read-out: LC50 (the source's name)",> 100 µM
same,TGI,"SW-620; five-dose, SW-620",100.0 µM
same,GI50,"MDA-MB231/ATCC; Homo sapiens, MDA-MB-231",> 100 µM
same,pIC50,"MDA-MB231/ATCC; Homo sapiens, MDA-MB-231",< 4.00
same,CC50,"MDA-MB231/ATCC; Homo sapiens, five-dose, MDA-MB-231/ATCC, read-out: LC50 (the source's name)",> 100 µM
same,TGI,"MDA-MB231/ATCC; five-dose, MDA-MB-231/ATCC",100.0 µM
same,activity at 10 µM,"HOP-62; Homo sapiens, HOP-62, 10 μM, HOP-62, Non-Small-Cell Lung Cancer, read-out: Growth percentage",-55.3%
same,GI50,HOP-62; [6],7.4 µM
same,pIC50,HOP-62; [6],4.14
same,CC50,"HOP-62; Homo sapiens, five-dose, HOP-62, read-out: LC50 (the source's name)",> 100 µM
same,TGI,"HOP-62; five-dose, HOP-62",100.0 µM
same,GI50,LOX IMVI; Homo sapiens,2.8 µM
same,pIC50,LOX IMVI; Homo sapiens,5.39
same,CC50,"LOX IMVI; Homo sapiens, read-out: LC50 (the source's name)",> 100 µM
same,TGI,LOX IMVI,100.0 µM
same,activity at 10 µM,"PC-3; Homo sapiens, 10 μM, PC-3, Prostate Cancer, read-out: Growth percentage",53.4%
same,GI50,"PC-3; Homo sapiens, five-dose, PC-3",51.3 µM
same,pIC50,"PC-3; Homo sapiens, five-dose, PC-3",< 4.00
same,CC50,"PC-3; Homo sapiens, five-dose, PC-3, read-out: LC50 (the source's name)",> 100 µM
same,TGI,"PC-3; five-dose, PC-3",100.0 µM
same,activity at 10 µM,"UACC-257; Homo sapiens, 10 μM, UACC-257, Melanoma, read-out: Growth percentage",53.9%
same,GI50,UACC-257; [7],46.8 µM
same,pIC50,UACC-257; [7],< 4.00
same,CC50,"UACC-257; Homo sapiens, five-dose, UACC-257, read-out: LC50 (the source's name)",> 100 µM
same,TGI,"UACC-257; five-dose, UACC-257",100.0 µM
same,activity at 10 µM,"SNB-75; 10 μM, SNB-75, CNS Cancer, read-out: Growth percentage",49.1%
same,GI50,"SNB-75; five-dose, SNB-75",> 100 µM
same,pIC50,"SNB-75; five-dose, SNB-75",< 4.00
same,CC50,"SNB-75; five-dose, SNB-75, read-out: LC50 (the source's name)",> 100 µM
